Results from patent US20200290950A1, “ALKAMIDE COMPOUNDS AND USES THEREOF” (NORTH CAROLINA STATE UNIVERSITY, priority 2017, published 2020).

Legend:
TRPA1 = target: T1, TRPA1 (Mus musculus, UniProt Q8BLA8); test: Calcium response of DRG neurons to mustard (allyl isothiocyanate); type: cell-based; conditions: cultured DRG neurons, fluorescence microscopy
T1 construct: The receptors TRPA1 and TRPV1 are expressed on neurons; from tissue; host or cells: primary dorsal root ganglion neurons from mice
From the text: FIG. 11. Calcium response from DRG sensory neurons to alkamide of transient receptors. Mustard a TRPA1-receptor agonist activates DRG neurons in gray (A) and capsaicin, an agonist for TRPV1-receptors in the DRG neurons in red (B). Ligand A15 inhibits both TRPA1 and TRPV1 receptors activation in orange; however, 85Y a synthetic ligand only reduces the inhibition of TRPA1 but not TRPV1 receptors in blue. Total number of neurons (n)=135-145; p≤0.05.
Several different model systems were utilized for these experiments. In one model, dorsal root ganglia were obtained from mice and the neurons cultured in vitro. The neurons were then stimulated in the presence/absence of A15 and YM8-85 and the calcium responses monitored by fluorescence microscopy. In the second model, the alkamides were applied to mouse skin in mineral oil. The reactions of these mice to heat, cold, and tactile stimulation was then compared with mice that had not received treatment with A15. […] Alkamides were applied to sensitized animals and then ear swelling and bouts of scratching were monitored.
In vitro DRG neuron responses. […] Neurons were stimulated with mustard (allyl isothiocyanate) (A) an agonist for the receptor TRPA-1 or capsaicin (B) an agonist for the receptor TRPV-1 and calcium responses were measured in individual neurons by fluorescence microscopy. […]

TDI-induced ear swelling = type: in vivo, mouse
From the text: (§1) Several different model systems were utilized for these experiments. In one model, dorsal root ganglia were obtained from mice and the neurons cultured in vitro. The neurons were then stimulated in the presence/absence of A15 and YM8-85 and the calcium responses monitored by fluorescence microscopy. In the second model, the alkamides were applied to mouse skin in mineral oil. The reactions of these mice to heat, cold, and tactile stimulation was then compared with mice that had not received treatment with A15. In a third model, mice were sensitized to the chemical compound toluene-2,4-diisocyanate (TDI). TDI is an industrial chemical which causes hypersensitive skin lesions and itching in exposed humans and animals. The physiological response to TDI is complex involving type 2 T lymphocytes, cytokines, mast cells, and neurons. Alkamides were applied to sensitized animals and then ear swelling and bouts of scratching were monitored.
A15 and TDI induced hypersensitivity. Mice were sensitized to toluene-2,4-diisocyanate (TDI) via abdominal application. Subsequently, a hypersensitive response was induced in the ear by direct application of TDI and ear thickness measured as a sign of inflammation.

[1] = TDI-induced scratching bouts (itch); type: in vivo, mouse; conditions: higher dose 1.0%
From the text: as §1
The effects of A15 on TDI-induced itch. The itch response was also monitored in mice sensitized and treated with TDI. Treated mice were video recorded and the number of scratching bouts quantified by an observer.

RBL-2H3 cells [2] = test: β-Hexosaminidase release assay (Example 3); type: cell-based, rat
Experimental: FIGS. 21A-21D. The inhibition of degranulation is dependent on the length of the alkamide fatty acid chain. RBL-2H3 cells were plated overnight, stimulated with 1 μM A23187 (FIG. 21A) or 5 ng/mL DNP-BSA (FIG. 21B) for 1 h in the absence or presence of each compound. Graphs display the mean percent β-hex release. Data are presented as the mean of 4 experiments. Percent inhibition of degranulation of A23187 (FIG. 21C) or DNP-BSA (FIG. 21D) using data from A and B, respectively. *P<0.05, **P<0.01, ***P<0.001, one-way ANOVA with Dunnett's post hoc test compared to vehicle (A, B) or A15 (C, D).
RBL-2H3 cells (1.0×10^5 cells) were incubated with or without 0.1 μg/mL of IgE-DNP overnight in a 96 well plate at 37° C. with 5% CO2. The cells were washed with Tyrode's buffer and assayed with few modifications (Kuehn, Radinger, & Gilfillan, 2010). Briefly, IgE-DNP sensitized cells were stimulated 1 hour with 5 ng/mL of DNP-BSA in the absence or presence of each compound and incubated at 37° C. with 5% CO2. For experiments using only A23187 as the stimulant, cells were washed with Tyrode's buffer and stimulated 1 hour with 1 μM A23187 in the absence or presence of each compound and incubated at 37° C. with 5% CO2. The stimulated cells were centrifuged at 1200×g for 5 minutes. The supernatant or cell lysate (30 μL) was incubated with 3.4 mg/mL of p-NAG (10 μL) for 1 hour at 37° C. The reaction was terminated by addition of 0.2 M sodium carbonate (pH 10) and the absorbance was read at OD405 nm on a BioTek Synergy HT microplate reader. The total 3-hexosaminidase released from the cell was calculated as the difference between the OD of the supernatant and blank plus the difference between the OD of the lysate and blank. The percent β-hexosaminidase released from the cell was calculated as the difference between the OD of the supernatant and blank divided by the total β-hexosaminidase released from the cell multiplied by 100: ODsupernatant−ODblank/[(ODlysate−ODblank)+(ODsupernatant−ODblank)]*100.

RBL-2H3 cells [3] = test: Calcium assay, Fluo-4 (Example 3); type: cell-based, rat
Experimental: FIGS. 22A-22D. The alkamide fatty acid is necessary for inhibition of calcium influx. RBL-2H3 cells were plated overnight, incubated with Fluo-4 AM for 1 h, stimulated by 1 μM A23187 (FIG. 22A) or 5 ng/mL DNP-BSA (FIG. 22B) in the absence or presence of each alkamide, and fluorescence was read for 2 mins every 5 secs. Data are presented as the mean change in RFU of 4 experiments. Percent inhibition of calcium influx was calculated for A23187 (FIG. 22C) and DNP-BSA (FIG. 22D) stimulated cells at 2 mins. *P<0.05, **P<0.01, and ***P<0.001 one-way ANOVA with Dunnett's post hoc test compared to A15.
RBL-2H3 cells (1.0×10^5 cells) were incubated overnight in a 96 well black-wall clear bottom plate with or without IgE-DNP (0.1 μg/mL) at 37° C. with 5% CO2. The assay was performed using the Fluo-4 Direct™ Calcium Assay Kit according to the manufacturer's instruction. Briefly, cells were incubated with the Fluo-4 Direct calcium reagent loading solution for 30 minutes at 37° C. with 5% CO2 then 30 mins at room temperature. Prior to stimulation, the well baseline fluorescence was measured every 5 seconds over 1 minute using a BioTek Synergy HT microplate reader with 485/20 nm excitation and 528/20 nm emission filters. Cells were stimulated with 1 μM A23187 or 5 ng/mL DNP (IgE-DNP) in the absence or presence of each compound, and the fluorescence was measured every 5 seconds over 2 minutes. The change in fluorescence (ΔRT) was calculated as the sample fluorescence minus the baseline fluorescence for each well.

RBL-2H3 cells [4] = test: TNF-α ELISA, 18 hrs (Example 3); type: cell-based, rat; conditions: 1 μM A23187, 18 hours
Experimental: FIGS. 25A-25B. […] RBL-2H3 cells were plated overnight and stimulated with 1 μM A23187 in the absence or presence of each alkamide for 18 h. Culture supernatants were analyzed for TNF-α levels by ELISA and experiments were performed in triplicate (FIG. 25A). Percent inhibition of TNF-α secretion for each alkamide listed in FIG. 25B. *P<0.05, **P<0.01, ***P<0.001, one-way ANOVA with Dunnett's post hoc test compared to vehicle (FIG. 25A) or A15 (FIG. 25B).
RBL-2H3 cells (1.0×10^5 cells) were incubated overnight in a 24 well plate at 37° C. with 5% CO2. Cells were washed with 1×PBS and stimulated with 1 μM A23187 for 18 hrs in the absence or presence of each compound. The cells were centrifuged (1200×g, 5 min) and the supernatants were collected. The concentration of TNF-α in the supernatants were determined using the TNF-α ELISA kit.

T1 sequence (Q8BLA8 whole entry): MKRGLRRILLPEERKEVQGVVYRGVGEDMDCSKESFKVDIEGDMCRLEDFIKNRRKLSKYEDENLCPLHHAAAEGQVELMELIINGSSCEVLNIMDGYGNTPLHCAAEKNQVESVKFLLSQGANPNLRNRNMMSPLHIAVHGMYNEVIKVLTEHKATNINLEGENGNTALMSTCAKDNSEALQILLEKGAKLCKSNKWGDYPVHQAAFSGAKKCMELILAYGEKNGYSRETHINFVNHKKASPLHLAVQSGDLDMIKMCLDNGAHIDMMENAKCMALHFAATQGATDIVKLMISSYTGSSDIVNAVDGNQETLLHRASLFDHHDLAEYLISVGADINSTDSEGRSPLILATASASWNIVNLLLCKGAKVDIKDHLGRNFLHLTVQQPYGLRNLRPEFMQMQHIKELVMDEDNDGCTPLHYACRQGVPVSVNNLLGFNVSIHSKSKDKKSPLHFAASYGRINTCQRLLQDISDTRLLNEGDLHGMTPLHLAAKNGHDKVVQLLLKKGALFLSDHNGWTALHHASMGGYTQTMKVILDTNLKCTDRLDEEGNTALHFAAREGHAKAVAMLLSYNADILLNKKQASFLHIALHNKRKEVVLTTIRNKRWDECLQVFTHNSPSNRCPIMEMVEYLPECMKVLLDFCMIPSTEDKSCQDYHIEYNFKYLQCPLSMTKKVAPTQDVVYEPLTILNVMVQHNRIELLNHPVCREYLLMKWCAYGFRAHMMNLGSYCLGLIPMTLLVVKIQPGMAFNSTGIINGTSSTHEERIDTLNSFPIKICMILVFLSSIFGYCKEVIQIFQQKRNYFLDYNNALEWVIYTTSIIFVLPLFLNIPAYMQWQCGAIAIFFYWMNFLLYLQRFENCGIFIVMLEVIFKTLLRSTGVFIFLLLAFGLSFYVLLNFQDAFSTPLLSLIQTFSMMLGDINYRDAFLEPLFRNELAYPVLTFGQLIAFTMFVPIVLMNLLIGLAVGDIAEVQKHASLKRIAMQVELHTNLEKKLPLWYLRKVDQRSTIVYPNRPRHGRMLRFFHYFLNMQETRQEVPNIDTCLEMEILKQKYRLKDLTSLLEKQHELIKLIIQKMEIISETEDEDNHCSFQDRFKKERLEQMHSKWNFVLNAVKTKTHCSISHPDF

Compound: CCCCCCCC(=O)NCC(C)C [YM8-85, N-Isobutyloctanamide]
- DRG neuron calcium response to mustard (TRPA1 agonist) (TRPA1): inhibit
- TDI ear swelling (ear thickness) (TDI-induced ear swelling; 0.1%, first experiment (FIG. 13A)): significant responses were not seen
- TDI ear swelling (ear thickness) (TDI-induced ear swelling; 0.1%, repeated experiment (FIG. 13B)): neither A15 nor YM8-85 at 0.1% produced significant inhibition
- TDI ear swelling (ear thickness) (TDI-induced ear swelling; 1%, first experiment (FIG. 13A)): significant responses were not seen
- scratching bouts in TDI treated mice [1]: significant inhibition of scratching
- percent inhibition of degranulation (RBL-2H3 cells [2]; 5 ng/mL DNP-BSA, 1 hour): 60%
- percent inhibition of degranulation (RBL-2H3 cells [2]; 1 μM A23187, 1 hour): 64%
- percent inhibition of calcium influx (RBL-2H3 cells [3]; 5 ng/mL DNP-BSA, at 2 minutes): 49%
- percent inhibition of calcium influx (RBL-2H3 cells [3]; 1 μM A23187, at 2 minutes): 91%
- percent inhibition of TNF-α secretion (RBL-2H3 cells [4]): 43%
